row,Compound,melting point [°C]
1,Cc1cc(C(F)(F)F)cc(C)c1Nc1nccc2c1ccn2CC(=O)N(C)C [Co. No. 18],214.46
2,Cc1ccc2c(ccn2C)c1Nc1nccc2c1ccn2CC(=O)N(C)C [Co. No. 2],251.73
3,CN(C)C(=O)Cn1ccc2c(Nc3c(Cl)cccc3Cl)nccc21 [Co. No. 5],215.7
4,CN(C)C(=O)Cn1ccc2c(Nc3c(Cl)cccc3OC(F)(F)F)nccc21 [Co. No. 24],200.76
5,Cc1cncc(Cl)c1Nc1nccc2c1ccn2CC(=O)N1CCC1 [Co. No. 12],211.88
6,Cc1cccc(Cl)c1Nc1nccc2c1ccn2CC(=O)N(C)C [Co. No. 22],211.1
7,Cc1cccc(C(F)(F)F)c1Nc1nccc2c1ccn2CC(=O)N(C)C [Co. No. 21],187.16
8,CC(C)c1cc(OC(F)(F)F)cc(Cl)c1Nc1nccc2c1ccn2CC(=O)N(C)C [Co. No. 27],69.34
9,Cc1cc(C(F)(F)F)cc(C(C)C)c1Nc1nccc2c1ccn2CC(=O)N(C)C [Co. No. 6],228.29
10,CN(C)C(=O)Cn1ccc2c(Nc3c(F)cccc3Cl)nccc21 [Co. No. 23],202.75
11,COc1nccc(C)c1Nc1nccc2c1ccn2CC(=O)N(C)C [Co. No. 4],221.78
